The text below walks through data of article PMC12345137 (mBio, 2025).

Entries after “also recorded” stand apart in the source; their conditions may differ. Where two headings read alike, the source gives them in different places. Positions of bridges follow the written chain, without caps; N, C: chain ends. Residues, ends and D or L forms follow the SMILES beside them.

Some targets named below: SA AgrC-I (Staphylococcus aureus, UniProt O07911); SA AgrC-II (Staphylococcus aureus, UniProt O33587); SA AgrC-IV (Staphylococcus aureus, UniProt Q309Z2).
Another assay has as its target S. lugdunensis agr-I (Staphylococcus lugdunensis, UniProt Q8VSW5). Description: cell-based. The note with it: for QS interaction in words (inhibition / activation), S. lugdunensis agr-I: fluorescent reporter strain, peptides tested at 1000, 50, 2.5, 0.125 nM or in dose-response. The method in brief:
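Fluorescence of the agr-driven P3 reporter, read after 22–24 h of growth with peptide at 37°C, was corrected for medium background and divided by OD600. Activity is given relative to wells without peptide, and IC50 values were fitted by non-linear regression with variable slope.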

In a further assay the target is S. aureus agr-III (Staphylococcus aureus, UniProt O33590). The assay can be described thus: cell-based. The method in brief: (§1)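 37°C, 1,000 rpm, 22–24 h in TSB + CAM or ERM (10 μg/mL); 1:5 serial peptide dilutions from 1 mM DMSO stocks; fluorescence (GFP ex 479/em 520, YFP ex 500/em 541) minus blank, ÷OD600, % of untreated control; IC50 by variable-slope fit.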
The next assay deals with S. aureus agr-II (Staphylococcus aureus, UniProt O33587). Description: cell-based. In a few lines: as §1
The test system of another assay is S. aureus (SA) agr-II. Particulars: fluorescence, cited from earlier work.
A further assay concerns S. aureus (SA) agr-III. Particulars: fluorescence, cited from earlier work.
The next assay addresses S. epidermidis agr-II (Staphylococcus epidermidis, UniProt Q8VSX5). Description: cell-based. The assay is classed as cell-based. The note with it: for QS interaction in words (inhibition / activation), S. epidermidis agr-II: fluorescent reporter strain, peptides tested at 1000, 50, 2.5, 0.125 nM or in dose-response. In a few lines:
as §1

A further assay deals with S. epidermidis agr-III (Staphylococcus epidermidis, UniProt Q8VSX2). Description: cell-based. The note with it: for QS interaction in words (inhibition / activation), S. epidermidis agr-III: fluorescent reporter strain, peptides tested at 1000, 50, 2.5, 0.125 nM or in dose-response. The assay is classed as cell-based. In a few lines: as §1
Another assay relates to S. aureus (SA) agr-IV. The note with it: fluorescence, cited from earlier work.
A further assay concerns the target S. aureus agr-IV (Staphylococcus aureus, UniProt Q309Z2). Description: cell-based. In kind it is cell-based. In a few lines: as §1
[1] abbreviates: 100 nM cognate AIP; ± SEM; -b = no inhibition recorded at the highest AIP concentration tested; determined previously; ref (1); read-out: IC50, SA AgrC-II, b-lactamase assay; cited from earlier work.
The mark [2] stands for this setting: fluorescent reporter strain, peptides tested at 1000, 50, 2.5, 0.125 nM or in dose-response.

Chain of S. lugdunensis agr-I (Q8VSW5 entry or part of it): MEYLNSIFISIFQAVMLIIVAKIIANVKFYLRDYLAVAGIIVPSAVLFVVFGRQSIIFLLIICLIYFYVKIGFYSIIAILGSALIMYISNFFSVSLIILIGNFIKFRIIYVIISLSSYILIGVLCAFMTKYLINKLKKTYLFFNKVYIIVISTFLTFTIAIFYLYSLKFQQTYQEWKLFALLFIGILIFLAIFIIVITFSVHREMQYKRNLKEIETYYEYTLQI
Chain of SA AgrC-I (O07911 entry or part of it): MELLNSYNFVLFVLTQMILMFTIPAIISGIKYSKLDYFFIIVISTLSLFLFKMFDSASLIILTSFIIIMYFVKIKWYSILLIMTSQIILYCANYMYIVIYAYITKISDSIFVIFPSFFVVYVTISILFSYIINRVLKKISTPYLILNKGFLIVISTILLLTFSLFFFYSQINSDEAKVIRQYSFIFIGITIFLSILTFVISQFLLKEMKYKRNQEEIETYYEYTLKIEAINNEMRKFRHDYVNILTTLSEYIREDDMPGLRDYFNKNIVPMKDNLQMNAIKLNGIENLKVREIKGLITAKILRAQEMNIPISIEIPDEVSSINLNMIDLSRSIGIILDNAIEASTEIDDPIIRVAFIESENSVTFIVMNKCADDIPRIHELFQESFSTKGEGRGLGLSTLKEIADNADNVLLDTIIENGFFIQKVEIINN
Chain of S. epidermidis agr-III (Q8VSX2 entry or part of it): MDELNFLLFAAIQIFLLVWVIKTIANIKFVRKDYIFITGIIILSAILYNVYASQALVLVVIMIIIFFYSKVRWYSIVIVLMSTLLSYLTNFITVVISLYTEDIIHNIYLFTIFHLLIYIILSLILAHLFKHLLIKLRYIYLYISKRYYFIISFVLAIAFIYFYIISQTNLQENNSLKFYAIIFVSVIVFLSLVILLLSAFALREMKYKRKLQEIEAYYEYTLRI
Chain of S. epidermidis agr-II (Q8VSX5 entry or part of it): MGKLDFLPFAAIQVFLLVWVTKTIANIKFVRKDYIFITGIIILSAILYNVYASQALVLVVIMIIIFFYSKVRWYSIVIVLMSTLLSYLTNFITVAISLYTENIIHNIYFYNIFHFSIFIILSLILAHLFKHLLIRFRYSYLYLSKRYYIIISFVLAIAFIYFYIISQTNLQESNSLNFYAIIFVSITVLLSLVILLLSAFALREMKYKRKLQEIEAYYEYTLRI
Chain of S. aureus agr-III (O33590 entry or part of it): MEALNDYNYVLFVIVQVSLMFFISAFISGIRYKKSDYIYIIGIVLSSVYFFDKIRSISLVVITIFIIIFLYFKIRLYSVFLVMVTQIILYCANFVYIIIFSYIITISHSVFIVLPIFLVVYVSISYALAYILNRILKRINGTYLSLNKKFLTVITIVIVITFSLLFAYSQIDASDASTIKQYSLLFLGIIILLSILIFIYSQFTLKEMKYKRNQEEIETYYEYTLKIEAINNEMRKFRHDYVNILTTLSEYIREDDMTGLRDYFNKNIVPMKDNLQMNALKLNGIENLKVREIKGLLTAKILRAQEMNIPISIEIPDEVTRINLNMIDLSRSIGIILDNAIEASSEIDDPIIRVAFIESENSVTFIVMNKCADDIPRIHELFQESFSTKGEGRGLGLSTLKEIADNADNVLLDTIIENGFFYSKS
Chain of SA AgrC-IV (Q309Z2 entry or part of it): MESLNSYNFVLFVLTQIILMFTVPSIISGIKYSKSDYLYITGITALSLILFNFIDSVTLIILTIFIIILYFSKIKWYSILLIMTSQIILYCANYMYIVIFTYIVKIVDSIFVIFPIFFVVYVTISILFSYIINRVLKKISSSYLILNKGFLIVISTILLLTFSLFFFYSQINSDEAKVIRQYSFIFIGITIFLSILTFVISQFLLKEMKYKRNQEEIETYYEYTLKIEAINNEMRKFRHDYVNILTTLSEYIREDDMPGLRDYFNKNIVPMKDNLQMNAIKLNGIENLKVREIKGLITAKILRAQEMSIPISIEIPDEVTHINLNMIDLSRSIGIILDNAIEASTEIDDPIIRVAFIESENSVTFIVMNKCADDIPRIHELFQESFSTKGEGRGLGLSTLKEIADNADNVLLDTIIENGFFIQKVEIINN
Chain of S. aureus agr-IV (Q309Z2 entry or part of it): as above
Chain of S. aureus agr-II (O33587 entry or part of it): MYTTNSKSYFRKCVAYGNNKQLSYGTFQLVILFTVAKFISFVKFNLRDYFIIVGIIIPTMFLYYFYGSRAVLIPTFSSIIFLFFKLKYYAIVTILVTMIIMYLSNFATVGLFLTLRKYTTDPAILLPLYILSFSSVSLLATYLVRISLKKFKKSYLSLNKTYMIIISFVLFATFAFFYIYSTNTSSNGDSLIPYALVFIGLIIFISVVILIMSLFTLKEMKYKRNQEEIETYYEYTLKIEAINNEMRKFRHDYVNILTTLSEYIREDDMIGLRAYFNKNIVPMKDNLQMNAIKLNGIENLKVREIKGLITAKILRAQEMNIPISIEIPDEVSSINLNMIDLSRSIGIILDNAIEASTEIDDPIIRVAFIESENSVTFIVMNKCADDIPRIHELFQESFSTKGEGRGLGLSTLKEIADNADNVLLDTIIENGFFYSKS
Chain of SA AgrC-II (O33587 entry or part of it): as above

Take `CC[C@H](C)[C@@H]1NC(=O)[C@H](Cc2ccccc2)NC(=O)[C@H](CC(=O)O)NC(=O)[C@@H](NC(=O)[C@@H](NC(=O)[C@H](CO)NC(=O)[C@@H](N)Cc2ccc(O)cc2)[C@@H](C)O)CSC(=O)[C@H](CCSC)NC1=O` [compound 1, S. aureus AIP-I] (H-YSTCDFIM; thioester 4-C): the IC50 against S. lugdunensis agr-I was over 1000 nM; against S. aureus agr-III, 0.91 nM; against S. aureus agr-II it was 5.8 ± 0.7 nM; in the assay with S. aureus (SA) agr-II (ref (5)), 8 nM; in the assay on S. aureus (SA) agr-III (ref (5)), 0.53 nM; at SA AgrC-II (setting [1]), 700 ± 165 nM. Further, the 50% inhibitory concentration (IC50) on S. epidermidis agr-II and against S. epidermidis agr-III was over 1000 nM in each case. Also, the concentration giving a half-maximal response (EC50) on SA AgrC-I (± SEM; determined previously; ref (1); read-out: EC50, SA AgrC-I, b-lactamase assay; cited from earlier work) is 5.4 ± 0.5 nM; on SA AgrC-IV (± SEM; determined previously; ref (1); read-out: EC50, SA AgrC-IV, b-lactamase assay; cited from earlier work), 790 ± 66 nM.

Regarding `CC(C)C[C@@H]1NC(=O)[C@@H](NC(=O)[C@@H]2CCCN2C(=O)[C@H](CC(N)=O)NC(=O)[C@H](Cc2ccc(O)cc2)NC(=O)[C@@H](N)CCCCN)CSC(=O)[C@H](CC(C)C)NC(=O)[C@H](Cc2ccccc2)NC(=O)CNC1=O` [compound 32, S. simulans AIP-I] (H-KYNPCLGFL; thioester 5-C; N-terminus assumed), the IC50 is 113 ± 11 nM against S. lugdunensis agr-I; 0.53 ± 0.02 nM against S. aureus agr-III; 0.31 ± 0.01 nM against S. aureus agr-II; 1.1 nM with S. aureus (SA) agr-II (ref (17)); 3.5 nM with S. aureus (SA) agr-III (ref (17)); 8.6 ± 0.5 nM at SA AgrC-I (read-out: IC50, SA AgrC-I, b-lactamase assay; 100 nM cognate AIP; ± SEM; -b = no inhibition recorded at the highest AIP concentration tested; determined previously; ref (1); cited from earlier work). For the same molecule, the half-inhibitory concentration (IC50) on SA AgrC-II (read-out: IC50, SA AgrC-II, b-lactamase assay; 100 nM cognate AIP; ± SEM; -b = no inhibition recorded at the highest AIP concentration tested; determined previously; ref (1); cited from earlier work) is 23 ± 2 nM; in the assay with S. aureus (SA) agr-IV (ref (17)) it was 23 nM; at SA AgrC-IV (read-out: IC50, SA AgrC-IV, b-lactamase assay; 100 nM cognate AIP; ± SEM; -b = no inhibition recorded at the highest AIP concentration tested; determined previously; ref (1); cited from earlier work), 280 ± 66 nM; against S. epidermidis agr-II, 0.26 ± 0.01 nM; against S. aureus agr-IV, 10 nM. Also, the “QS interaction in words (inhibition / activation), S. epidermidis agr-III” value was “activated; also recorded: activators” at S. epidermidis agr-III and “activation” at S. epidermidis agr-III (listed as S. simulans AIP-I).

Regarding `NCCCC[C@H](N)C(=O)N[C@@H](Cc1ccc(O)cc1)C(=O)N[C@@H](Cc1ccc(O)cc1)C(=O)N1CCC[C@H]1C(=O)N[C@H]1CSC(=O)[C@H](Cc2ccccc2)NC(=O)[C@H](Cc2ccc(O)cc2)NC(=O)CNC(=O)[C@H](Cc2c[nH]c3ccccc23)NC1=O` [compound 33, S. simulans AIP-II] (H-KYYPCWGYF; thioester 5-C), the concentration for half-maximal inhibition (IC50) against S. lugdunensis agr-I is 1.2 ± 0.2 nM; on S. aureus agr-III, 2.8 ± 0.3 nM; against S. aureus agr-II, 0.8 ± 0.2 nM; with S. aureus (SA) agr-III (ref (17)), 11.5 nM; with S. aureus (SA) agr-IV (ref (17)) it was 40 nM; at S. epidermidis agr-II, 0.26 ± 0.08 nM. Moreover, the 50% inhibitory concentration (IC50) on S. aureus agr-IV turned out to be 31 ± 7 nM; against S. epidermidis agr-III, 0.6 ± 0.2 nM. On S. lugdunensis agr-I, the “QS interaction in words (inhibition / activation), S. lugdunensis agr-I” value was “inhibited; also recorded: sub- or low-nanomolar potencies”. In addition, the “QS interaction in words (inhibition / activation), S. aureus agr-III” value at S. aureus agr-III (setting [2]) was “inhibited”. In addition, at S. aureus agr-II (setting [2]), the “QS interaction in words (inhibition / activation), S. aureus agr-II” value is recorded as “inhibited”. Further, the “QS interaction in words (inhibition / activation), S. epidermidis agr-II” value at S. epidermidis agr-II is “inhibited”. The “QS interaction in words (inhibition / activation), S. aureus agr-IV” value at S. aureus agr-IV (setting [2]) was “inhibited”. Further, at S. epidermidis agr-III, the “QS interaction in words (inhibition / activation), S. epidermidis agr-III” value is “inhibited; also recorded: sub-nanomolar inhibition”.

Consider `NCCCC[C@H](N)C(=O)N[C@@H](Cc1ccc(O)cc1)C(=O)N[C@@H](CC(N)=O)C(=O)N1CCC[C@H]1C(=O)N[C@H]1CSC(=O)[C@H](Cc2ccccc2)NC(=O)[C@H](Cc2ccc(O)cc2)NC(=O)CNC(=O)[C@H](Cc2c[nH]c3ccccc23)NC1=O` [compound 34, S. simulans AIP-III] (H-KYNPCWGYF; thioester 5-C), for which the IC50 was 0.48 nM against S. lugdunensis agr-I; 0.59 ± 0.04 nM against S. aureus agr-III; 0.22 ± 0.06 nM against S. aureus agr-II; 6 nM in the assay on S. aureus (SA) agr-II (ref (17)); 3.2 nM in the assay with S. aureus (SA) agr-III (ref (17)); 48 nM in the assay on S. aureus (SA) agr-IV (ref (17)). Moreover, the IC50 against S. epidermidis agr-II came to 0.11 ± 0.02 nM; on S. aureus agr-IV it was 34 nM. For the same molecule, the “IC50 fold lower compared with the most potent, previously reported inhibitors of S. lugdunensis” value against S. lugdunensis agr-I (S. lugdunensis agr-I, comparison with [37]) is recorded as 400 fold. On S. lugdunensis agr-I, the “QS interaction in words (inhibition / activation), S. lugdunensis agr-I” value is “sub- or low-nanomolar potencies”. In addition, the “QS interaction in words (inhibition / activation), S. epidermidis agr-III” value at S. epidermidis agr-III is reported as “activated; also recorded: activators”; at S. epidermidis agr-III (listed as S. simulans AIP-III) it was “activator”.

For “S. aureus AIP-III D4A [compound 57, reference compound]”, the “QS interaction in words (inhibition / activation), S. lugdunensis agr-I” value on S. lugdunensis agr-I is recorded as “weak interference”. Moreover, the concentration for half-maximal inhibition (IC50) with S. aureus (SA) agr-II (ref (5)) is 0.43 nM; in the assay with S. aureus (SA) agr-III (ref (5)), 0.051 nM; at SA AgrC-I (100 nM cognate AIP; ± SEM; -b = no inhibition recorded at the highest AIP concentration tested; determined previously; ref (1); read-out: IC50, SA AgrC-I, b-lactamase assay; cited from earlier work), 3.3 ± 0.7 nM; on SA AgrC-II (setting [1]), 34 ± 1 nM; in the assay with S. aureus (SA) agr-IV (ref (5)), 0.035 nM; at SA AgrC-IV (100 nM cognate AIP; ± SEM; -b = no inhibition recorded at the highest AIP concentration tested; determined previously; ref (1); read-out: IC50, SA AgrC-IV, b-lactamase assay; cited from earlier work) it was 10 ± 0.2 nM. The “QS interaction in words (inhibition / activation), S. epidermidis agr-II” value on S. epidermidis agr-II is given as “weak interference”. Further, on S. aureus agr-IV ([…] peptide, fluorescent reporter strain), the “QS inhibition at […], S. aureus agr-IV” value is over 95%. At S. epidermidis agr-III, the “QS interaction in words (inhibition / activation), S. epidermidis agr-III” value is listed as “weak interference”.
